Reference: ChEMBL document CHEMBL5321219, “Selective degradation of cellular BRD3 and BRD4-L promoted by PROTAC molecules in six cancer cell lines” (Eur J Med Chem, 2023)
Calls of active or inactive are those of the source. The rule behind the calls is not given here.

Columns and labels:
[1] = molecular target: T1, Protein cereblon/Bromodomain-containing protein 2 (Homo sapiens) (UniProt P25440+Q96SW2); experiment: PROTAC activity at CRBN/BRD2 in human MCF7 cells assessed as induction of protein degradation at 30 nM measured around 24 hrs by Western blot analysis; format: cell-based
T1 sequence (P25440 whole entry, looked up): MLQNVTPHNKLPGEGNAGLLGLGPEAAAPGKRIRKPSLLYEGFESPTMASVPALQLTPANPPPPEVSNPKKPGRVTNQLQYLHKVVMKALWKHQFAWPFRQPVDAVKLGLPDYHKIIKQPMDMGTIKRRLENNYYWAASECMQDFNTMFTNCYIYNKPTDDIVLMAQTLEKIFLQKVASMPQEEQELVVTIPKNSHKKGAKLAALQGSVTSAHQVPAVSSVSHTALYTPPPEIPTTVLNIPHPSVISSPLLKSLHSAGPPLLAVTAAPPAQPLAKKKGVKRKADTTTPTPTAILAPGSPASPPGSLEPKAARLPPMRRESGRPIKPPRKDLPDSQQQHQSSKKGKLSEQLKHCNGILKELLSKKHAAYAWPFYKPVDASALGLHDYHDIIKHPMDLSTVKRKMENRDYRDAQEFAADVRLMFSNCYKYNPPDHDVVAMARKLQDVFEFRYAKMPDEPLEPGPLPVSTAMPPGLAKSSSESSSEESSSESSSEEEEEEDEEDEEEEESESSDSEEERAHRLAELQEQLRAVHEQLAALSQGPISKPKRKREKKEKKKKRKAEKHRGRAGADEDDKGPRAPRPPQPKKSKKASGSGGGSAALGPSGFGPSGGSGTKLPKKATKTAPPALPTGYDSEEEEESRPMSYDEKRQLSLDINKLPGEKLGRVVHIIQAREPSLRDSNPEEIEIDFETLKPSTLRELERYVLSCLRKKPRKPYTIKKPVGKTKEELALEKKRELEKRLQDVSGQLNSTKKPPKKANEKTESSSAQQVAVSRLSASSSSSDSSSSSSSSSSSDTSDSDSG
T1 sequence (Q96SW2 whole entry, looked up): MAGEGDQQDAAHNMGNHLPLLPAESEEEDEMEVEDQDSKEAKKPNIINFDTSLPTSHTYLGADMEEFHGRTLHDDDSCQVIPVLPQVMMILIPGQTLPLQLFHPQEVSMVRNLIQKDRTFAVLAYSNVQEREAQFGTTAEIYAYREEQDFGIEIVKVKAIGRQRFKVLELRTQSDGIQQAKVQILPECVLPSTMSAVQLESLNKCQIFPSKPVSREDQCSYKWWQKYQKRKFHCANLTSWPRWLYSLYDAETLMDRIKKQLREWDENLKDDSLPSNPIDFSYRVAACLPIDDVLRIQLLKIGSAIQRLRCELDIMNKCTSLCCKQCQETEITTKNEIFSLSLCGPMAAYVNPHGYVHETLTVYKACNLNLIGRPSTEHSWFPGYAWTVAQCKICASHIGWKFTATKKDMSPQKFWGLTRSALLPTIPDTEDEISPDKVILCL

[2] = molecular target: T2, Protein cereblon/Bromodomain-containing protein 3 (Homo sapiens) (UniProt Q15059+Q96SW2); experiment: PROTAC activity at CRBN/BRD3 in human HGC-27 cells assessed as induction of protein degradation at 30 nM measured after 8 to 24 hrs by Western blot analysis; format: cell-based; details: time 8-24 hrs
T2 sequence (Q15059 2-726 limits assumed): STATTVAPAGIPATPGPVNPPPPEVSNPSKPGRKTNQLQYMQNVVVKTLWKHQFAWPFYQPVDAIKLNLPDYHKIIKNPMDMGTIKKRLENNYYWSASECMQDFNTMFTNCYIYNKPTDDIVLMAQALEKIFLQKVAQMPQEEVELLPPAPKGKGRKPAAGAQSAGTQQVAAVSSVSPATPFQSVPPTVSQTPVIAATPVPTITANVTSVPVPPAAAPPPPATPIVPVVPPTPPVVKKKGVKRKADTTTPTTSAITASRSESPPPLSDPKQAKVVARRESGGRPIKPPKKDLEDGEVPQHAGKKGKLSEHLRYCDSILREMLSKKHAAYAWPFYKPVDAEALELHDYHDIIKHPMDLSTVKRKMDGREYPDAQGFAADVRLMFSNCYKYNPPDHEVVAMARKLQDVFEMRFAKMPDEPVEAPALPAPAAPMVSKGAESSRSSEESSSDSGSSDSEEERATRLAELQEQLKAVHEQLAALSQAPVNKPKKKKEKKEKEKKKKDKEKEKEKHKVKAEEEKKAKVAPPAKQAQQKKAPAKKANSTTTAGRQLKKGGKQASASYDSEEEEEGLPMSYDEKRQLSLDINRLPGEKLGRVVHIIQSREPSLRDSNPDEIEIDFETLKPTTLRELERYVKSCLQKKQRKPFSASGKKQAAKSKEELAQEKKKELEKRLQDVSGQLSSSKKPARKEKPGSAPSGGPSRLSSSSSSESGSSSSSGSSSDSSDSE
T2 sequence (Q96SW2 whole entry partner): as the sequence (Q96SW2 whole entry, looked up) above

[3] = molecular target: T2, Protein cereblon/Bromodomain-containing protein 3 (Homo sapiens); experiment: PROTAC activity at CRBN/BRD3 in human A549 cells assessed as induction of protein degradation measured after 24 hrs by Western blot analysis; format: cell-based; details: dose 3-1000 nM
[4] = molecular target: T2, Protein cereblon/Bromodomain-containing protein 3 (Homo sapiens); experiment: PROTAC activity at CRBN/BRD3 in human HepG2 cells assessed as induction of protein degradation measured after 24 hrs by Western blot analysis; format: cell-based; details: dose 10-3000 nM
[5] = molecular target: T3, Protein cereblon/Bromodomain-containing protein 4 (Homo sapiens) (UniProt O60885+Q96SW2); experiment: PROTAC activity at CRBN/BRD4-L in human A549 cells assessed as induction of protein degradation measured after 24 hrs by Western blot analysis; format: cell-based; details: dose 3-1000 nM
T3 sequence (Q96SW2 whole entry, looked up, other chains not shown): as the sequence (Q96SW2 whole entry, looked up) above

[6] = molecular target: T1, Protein cereblon/Bromodomain-containing protein 2 (Homo sapiens); experiment: PROTAC activity at CRBN/BRD2 in human HGC-27 cells assessed as induction of protein degradation at 0.1 to 30 nM measured after 24 hrs by Western blot analysis; format: cell-based; details: dose 0.1-30 nM
[7] = molecular target: T1, Protein cereblon/Bromodomain-containing protein 2 (Homo sapiens); experiment: PROTAC activity at CRBN/BRD2 in human HeLa cells assessed as induction of protein degradation at 1 to 300 nM measured after 24 hrs by Western blot analysis; format: cell-based; details: dose 1-300 nM
[8] = molecular target: T3, Protein cereblon/Bromodomain-containing protein 4 (Homo sapiens); experiment: PROTAC activity at CRBN/BRD4-S in human HeLa cells assessed as induction of protein degradation at 1 to 300 nM measured after 24 hrs by Western blot analysis; format: cell-based; details: dose 1-300 nM
HepG2 = experiment: Antiproliferative activity against human HepG2 cells assessed as cell growth inhibition measured after 4 days by CCK-8 assay; format: functional, cell-based; details: HepG2, 96 h
MM1.S = experiment: Downregulation of BRD2 expression in human MM1.S cells by proteomic analysis; format: functional, cell-based
[9] = molecular target: T2, Protein cereblon/Bromodomain-containing protein 3 (Homo sapiens); experiment: (§1) PROTAC activity at CRBN/BRD3 in human MM1.S cells assessed as induction of protein degradation at 30 nM pretreated with lenalidomide for 2 hrs followed by compound addition and measured after 4 hrs by Western blot analysis; format: cell-based
[10] = molecular target: T3, Protein cereblon/Bromodomain-containing protein 4 (Homo sapiens); experiment: as §1, with “CRBN/BRD4-L” for “CRBN/BRD3”, “(6R)-N-(4-chlorophenyl)-1-methyl-8-(1-methyl-1H-pyrazol-4-yl)-5,6-dihydro-4H-benzo[f][1,2,4]triazolo[4,3-a]azepin-6-amine” for “lenalidomide”; format: cell-based
[11] = molecular target: T3, Protein cereblon/Bromodomain-containing protein 4 (Homo sapiens); experiment: PROTAC activity at CRBN/BRD4-S in human MM1.S cells assessed as induction of protein degradation at 0.1 to 30 nM measured after 24 hrs by Western blot analysis; format: cell-based; details: dose 0.1-30 nM
[12] = molecular target: T2, Protein cereblon/Bromodomain-containing protein 3 (Homo sapiens); experiment: PROTAC activity at CRBN/BRD3 in human MCF7 cells assessed as induction of protein degradation at 30 nM by Western blot analysis; format: cell-based; details: time 1-3 hrs, TDE = time-dependent effect

Activity [1]: Active | Activity [2]: Active | Activity [3]: Dose-Dependent Effect | Activity [4]: Dose-Dependent Effect | Activity [5]: Dose-Dependent Effect | Activity [6]: inactive | Activity [7]: inactive | Activity [8]: inactive | IC50 (HepG2): 17.2 µM | Activity [9]: inactive | Activity [10]: inactive | Activity [11]: inactive | Activity [12]: Tde
SMILES: Cc1nnc2n1-c1ccc(-c3ccc(CNCCCCc4cccc5c4CN(C4CCC(=O)NC4=O)C5=O)cc3)cc1C(Nc1ccc(Cl)cc1)CC2 (centres undefined)
Activity (MM1.S): inactive
